From patent publication US20240180883A1, “TREATMENT OF MIGRAINE” (Allergan Pharmaceuticals International Limited, priority 2020, published 2024)
Entries after “also recorded” stand apart in the source; their conditions may differ. Read-outs that look alike come from different tables or passages of the source.

Assays:
[1] = Ubrogepant clinical pharmacokinetics summary; format: in vivo, human
Experimental: Ubrogepant is excreted mainly through the biliary/fecal route, while the renal route is a minor route of elimination.
In clinical studies, ubrogepant was administered without regard to food. […]

plasma protein = assay: Plasma protein binding in vitro; format: in vitro ADME
[2] = Long-term safety, open-label extension study; format: in vivo, human
Experimental: Long-term safety was assessed in 813 patients, dosing intermittently for up to 1 year in an open-label extension study. […] Of these 813 patients, 421 patients were exposed to 50 mg or 100 mg for at least 6 months, and 364 patients were exposed to these doses for at least one year, all of whom treated at least two migraine attacks per month, on average. […] The most common adverse reaction resulting in discontinuation in the long-term safety study was nausea.

[3] = Phase 1 food effect study, 100 mg tablet fed vs fasted; format: in vivo, human; details: for AUC(0-inf) / AUC(0-t) / Cmax / Tmax / Vd/F / half-life: both sexes, human, plasma, oral, 100 mg; for Vd/F: read-out: Vz/F, arithmetic mean (CV %); for half-life: read-out: t1/2, mean (CV %) (converted)
Experimental: The treatments were administered in 1 of 2 sequences in periods 1 and 2 with a washout period of at least 7 days between each treatment.
Eighteen healthy participants with a mean age of 28.4 years (range: 20 to 39 years) were enrolled. The majority of participants were male (14 of 18, 77.8%). […] Mean (SD) weight was 75.99 ([…]) kg and mean (SD) BMI was 25.03 (3.290) kg/m2. Participants were randomly assigned one of two treatments in 1 of 2 sequences in Periods 1 and 2, with a washout period of at least 7 days between each study treatment.
For fed participants, the standardized high-fat (approximately 50% of total caloric content of the meal) and high-calorie (total of approximately 800 to 1000 calories) breakfast derived approximately 150 calories from protein, 250 calories from carbohydrates, and 500 to 600 calories from fat. An example of a high-fat breakfast meal would be 2 eggs fried in butter, 2 strips of bacon, 2 slices of toast with butter, 4 ounces of hash brown potatoes, and 8 ounces of whole milk. […] Participants who were randomly assigned to receive ubrogepant under fed conditions were required to consume the high-fat, high-calorie breakfast in full. For all participants, no food was allowed for 4 hours following study treatment administration. Water was allowed as desired except for 1 hour before and 1 hour after study treatment administration.

P-gp = P-gp (Homo sapiens, UniProt P08183); assay: P-gp transporter substrate in vitro; format: in vitro ADME
[4] = single dose [14C]-ubrogepant, healthy male subjects
[5] = Total: participants who took any investigational product
[6] = Total: participants who took any investigative product
[7] = Treatment A: ubrogepant 100 mg single dose, fasted
[8] = Treatment C: 600 mg rifampin co-administered with 100 mg ubrogepant on Day 14

Chain of P-gp (P08183 whole entry): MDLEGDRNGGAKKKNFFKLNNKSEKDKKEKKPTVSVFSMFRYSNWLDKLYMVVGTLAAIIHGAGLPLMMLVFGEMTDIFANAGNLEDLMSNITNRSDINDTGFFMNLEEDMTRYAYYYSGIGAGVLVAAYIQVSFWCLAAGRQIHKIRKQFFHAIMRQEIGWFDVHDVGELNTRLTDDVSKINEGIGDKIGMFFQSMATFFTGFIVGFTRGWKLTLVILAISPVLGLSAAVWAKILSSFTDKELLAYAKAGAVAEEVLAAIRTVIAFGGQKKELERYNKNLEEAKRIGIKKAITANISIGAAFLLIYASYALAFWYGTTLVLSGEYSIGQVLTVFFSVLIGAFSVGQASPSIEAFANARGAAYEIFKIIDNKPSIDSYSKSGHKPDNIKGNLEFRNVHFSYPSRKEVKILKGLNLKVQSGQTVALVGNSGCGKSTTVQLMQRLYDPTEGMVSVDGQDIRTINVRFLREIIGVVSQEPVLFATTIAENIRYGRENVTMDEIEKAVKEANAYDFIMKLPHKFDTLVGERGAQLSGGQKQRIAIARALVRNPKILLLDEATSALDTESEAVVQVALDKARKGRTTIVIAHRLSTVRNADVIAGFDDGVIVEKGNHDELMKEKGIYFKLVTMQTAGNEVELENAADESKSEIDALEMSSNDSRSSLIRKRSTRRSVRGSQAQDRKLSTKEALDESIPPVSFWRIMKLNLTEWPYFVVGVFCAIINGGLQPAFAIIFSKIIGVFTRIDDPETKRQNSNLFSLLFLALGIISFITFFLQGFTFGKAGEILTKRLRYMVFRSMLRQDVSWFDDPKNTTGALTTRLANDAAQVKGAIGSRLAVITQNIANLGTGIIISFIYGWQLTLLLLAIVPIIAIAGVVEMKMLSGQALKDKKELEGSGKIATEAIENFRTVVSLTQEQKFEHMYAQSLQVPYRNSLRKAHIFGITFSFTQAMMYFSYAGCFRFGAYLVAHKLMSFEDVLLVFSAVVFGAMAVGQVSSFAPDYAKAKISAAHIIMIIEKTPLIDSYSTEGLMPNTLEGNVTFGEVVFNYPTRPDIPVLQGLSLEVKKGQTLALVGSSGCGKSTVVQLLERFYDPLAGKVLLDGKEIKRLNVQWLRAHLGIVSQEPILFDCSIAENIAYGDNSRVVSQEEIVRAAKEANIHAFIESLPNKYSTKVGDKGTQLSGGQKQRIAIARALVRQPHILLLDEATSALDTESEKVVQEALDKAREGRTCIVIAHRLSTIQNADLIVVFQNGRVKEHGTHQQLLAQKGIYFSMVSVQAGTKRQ

For `C[C@@H]1[C@H](c2ccccc2)C[C@H](NC(=O)c2cnc3c(c2)C[C@@]2(C3)C(=O)Nc3ncccc32)C(=O)N1CC(F)(F)F` [ubrogepant, (3′S)-N-((3S,5S,6R)-6-methyl-2-oxo-5-phenyl-1-(2,2,2-trifluoroethyl)piperidin-3-yl)-2′-oxo-1′,2′,5,7-etrahydrospiro[cyclopenta[b]pyridine-6,3′-pyrrolo[2,3-b]pyridine]-3-carboxamide], the renal route elimination ([1]; human, in vivo) was less than 10%, the “mean apparent oral clearance (CL/F)” value ([1]; human, in vivo, po) was “approximately 87 L/hr” and the half-life ([1]; human, plasma, oral, read-out: elimination half-life) was 5 to 7 h. For the same compound, the “time of peak plasma concentrations” value ([1]; oral administration) was “approximately 1.5 hours”, the “dose recovered as unchanged ubrogepant in feces” value [1, 4] was 42% and the “dose recovered as unchanged ubrogepant in urine” value [1, 4] was 6%. For the same compound, the “mean apparent central volume of distribution (V/L)” value ([1]; single dose oral administration) was “approximately 350 L”, the “change in AUC” value ([1]; with a high-fat meal) was “no change in AUC” and the “delay of time to maximum plasma concentration” value ([1]; with a high-fat meal) was 2 h. The “reduction in Cmax” value ([1]; with a high-fat meal) was 22%, the fraction unbound (plasma protein) was 0.13 and the “patients withdrawn because of an adverse reaction” value ([2]; intermittent dosing for up to 1 year, 50 mg or 100 mg) was 2.5%. The “most common adverse reaction resulting in discontinuation” value ([2]; long-term safety study) was “nausea”, the “effect of a high fat meal on extent of exposure (AUC0-t and AUC0-inf)” value ([3]; 1 × 100 mg tablet) was “did not affect the extent of exposure” and the “CL/F, arithmetic mean (CV %)” value ([3]; 1 × 100 mg tablet, fasted) was 77.29 (29.9) L/h. The “Tmax, median (minimum − maximum)” value ([3]; 1 × 100 mg tablet, fasted) was 1.00 (1.00-3.00) h, the “t1/2, mean (CV %)” value ([3]; 1 × 100 mg tablet, fasted) was 4.99 (23.0) h and the “CL/F, arithmetic mean (CV %)” value ([3]; 1 × 100 mg tablet, fed) was 76.55 (24.1) L/h. The “Tmax, median (minimum − maximum)” value ([3]; 1 × 100 mg tablet, fed) was 3.00 (0.50-4.00) h, the “t1/2, mean (CV %)” value ([3]; 1 × 100 mg tablet, fed) was 4.64 (11.1) h and the “maximum exposure (Cmax) lower under fed versus fasted conditions” value ([3]; 1 × 100 mg tablet, high fat meal) was “approximately 22%”. It also gave an AUC(0-inf) ([3]; 1 × 100 mg tablet, fasted, read-out: AUC0-inf, geometric mean (geometric CV %)) of 1360 ng·h/mL, an AUC(0-t) ([3]; 1 × 100 mg tablet, fasted, read-out: AUC0-t, geometric mean (geometric CV %)) of 1330 ng·h/mL and a Cmax ([3]; 1 × 100 mg tablet, fasted, read-out: Cmax, geometric mean (geometric CV %)) of 334 ng/mL. For the same compound, the AUC(0-inf) ([3]; 1 × 100 mg tablet, fasted, read-out: GLSM AUC0-inf) was 1370 ng·h/mL, the AUC(0-t) ([3]; 1 × 100 mg tablet, fasted, read-out: GLSM AUC0-t) was 1340 ng·h/mL and the Cmax ([3]; 1 × 100 mg tablet, fasted, read-out: GLSM Cmax) was 336 ng/mL. For the same compound, the Tmax ([3]; 1 × 100 mg tablet, fasted, read-out: Tmax, median (minimum − maximum)) was 1 h, the Vd/F ([3]; 1 × 100 mg tablet, fasted) was 536 L and the half-life ([3]; 1 × 100 mg tablet, fasted) was roughly 5 h. It also gave an AUC(0-inf) ([3]; 1 × 100 mg tablet, fed, read-out: AUC0-inf, geometric mean (geometric CV %)) of 1340 ng·h/mL, an AUC(0-t) ([3]; 1 × 100 mg tablet, fed, read-out: AUC0-t, geometric mean (geometric CV %)) of 1320 ng·h/mL and a Cmax ([3]; 1 × 100 mg tablet, fed, read-out: Cmax, geometric mean (geometric CV %)) of 262 ng/mL. The AUC(0-inf) ([3]; 1 × 100 mg tablet, fed, read-out: GLSM AUC0-inf) was 1350 ng·h/mL, the AUC(0-t) ([3]; 1 × 100 mg tablet, fed, read-out: GLSM AUC0-t) was 1330 ng·h/mL and the Cmax ([3]; 1 × 100 mg tablet, fed, read-out: GLSM Cmax) was 263 ng/mL. For the same compound, the Tmax ([3]; 1 × 100 mg tablet, fed, read-out: Tmax, median (minimum − maximum)) was 3 h, the Vd/F ([3]; 1 × 100 mg tablet, fed) was 507 L and the half-life ([3]; 1 × 100 mg tablet, fed) was roughly 5 h. For the same compound, the Tmax ([3]; 1 × 100 mg tablet, read-out: Tmax median difference (fed−fasted)) was 2 h, the “GMR AUC0-inf” value ([3]; fed vs fasted) was 98.89% and the “GMR AUC0-t” value ([3]; fed vs fasted) was 98.88%. For the same compound, the “GMR Cmax” value ([3]; fed vs fasted) was 78.39%, the “substrate of P-gp transporter” value (P-gp) was “substrate” and the participants with headache (Study B: adverse events; Study B, whole trial) was 13.3%. For the same compound, the “Any AE” value (Study B: adverse events; [5]) was 6 (20.0) n (%), the “Dry Mouth” value (Study B: adverse events; [5]) was 1 (3.3) n (%) and the Flatulence (Study B: adverse events; [5]) was 1 (3.3) n (%). The “Gastrointestinal Disorders” value (Study B: adverse events; [5]) was 4 (13.3) n (%), the Headache (Study B: adverse events; [5]) was 4 (13.3) n (%) and the Nausea (Study B: adverse events; [5]) was 2 (6.7) n (%). The “Nervous System Disorders” value (Study B: adverse events; [5]) was 4 (13.3) n (%), the “AEs leading to discontinuation” value (Study B: adverse events; [6]) was 0 n (%) and the Deaths (Study B: adverse events; [6]) was 0 n (%). For the same compound, the SAEs (Study B: adverse events; [6]) was 0 n (%), the TEAEs (Study B: adverse events; [6]) was 6 (20.0) n (%) and the “Treatment related TEAEs” value (Study B: adverse events; [6]) was 6 (20.0) n (%). The “AEs leading to discontinuation” value (Study B: adverse events; [7]) was 0 n (%), the “Any AE” value (Study B: adverse events; [7]) was 4 (13.3) n (%) and the Deaths (Study B: adverse events; [7]) was 0 n (%). For the same compound, the “Dry Mouth” value (Study B: adverse events; [7]) was 1 (3.3) n (%), the Flatulence (Study B: adverse events; [7]) was 1 (3.3) n (%) and the “Gastrointestinal Disorders” value (Study B: adverse events; [7]) was 2 (6.7) n (%). For the same compound, the Headache (Study B: adverse events; [7]) was 2 (6.7) n (%), the Nausea (Study B: adverse events; [7]) was 0 n (%) and the “Nervous System Disorders” value (Study B: adverse events; [7]) was 2 (6.7) n (%). The SAEs (Study B: adverse events; [7]) was 0 n (%), the TEAEs (Study B: adverse events; [7]) was 4 (13.3) n (%) and the “Treatment related TEAEs” value (Study B: adverse events; [7]) was 4 (13.3) n (%). For the same compound, the “AEs leading to discontinuation” value (Study B: adverse events; [8]) was 0 n (%), the “Any AE” value (Study B: adverse events; [8]) was 2 (7.1) n (%) and the Deaths (Study B: adverse events; [8]) was 0 n (%). For the same compound, the “Dry Mouth” value (Study B: adverse events; [8]) was 0 n (%), the Flatulence (Study B: adverse events; [8]) was 0 n (%) and the “Gastrointestinal Disorders” value (Study B: adverse events; [8]) was 2 (7.1) n (%). For the same compound, the Headache (Study B: adverse events; [8]) was 1 (3.6) n (%), the Nausea (Study B: adverse events; [8]) was 2 (7.1) n (%) and the “Nervous System Disorders” value (Study B: adverse events; [8]) was 1 (3.6) n (%). For the same compound, the SAEs (Study B: adverse events; [8]) was 0 n (%), the TEAEs (Study B: adverse events; [8]) was 2 (7.1) n (%) and the “Treatment related TEAEs” value (Study B: adverse events; [8]) was 2 (7.1) n (%). For the same compound, the safety and tolerability (Study B: adverse events; single oral dose coadministered with multiple doses of rifampin) was “safe and generally well tolerated; also recorded: safe and generally well-tolerated”.
